Assay results: patent publication US8975397B2, “Solid forms” (Hoffmann-La Roche Inc., priority 2011, dated 2015)
In brackets after ≈: the same amount, converted by molar mass. Entries after “also recorded” stand apart in the source; their conditions may differ. Where two headings read alike, the source gives them in different places.

Assays:
[1] = Thermodynamic stability of polymorphs; type: physicochemical
Description: The term “monotropy” denotes the relationship between two or more crystal forms of the same substance in which the rank order of thermodynamic stabilities of the polymorphs is retained at all temperatures below the melting point.

[2] = Temperature Controlled XRPD / heating: solid form change; type: physicochemical; settings: for solid form changes at elevated temperature: Temperature Controlled XRPD
Procedure: Temperature Controlled XRPD analyses of Form B show a phase transition to Form A at elevated temperature. In the temperature range 105-135° C. only Form A is present. In the temperature range of 65-95° C. an intermediate state is observed that is characterized by significant changes in peak positions.

[3] = Hygroscopicity (European Pharmacopoeia classification); type: physicochemical; settings: for hygroscopicity: mass increase 0% rH to 90% rH
Description: The term “hygroscopicity” describes the ability of a solid material to adsorb moisture. The hygroscopicity of a given API is characterized [European Pharmacopoeia—6th Edition (2008), Chapter 5.11) by the increase in mass when the relative humidity is raised from 0% rH to 90% rH: • non-hygroscopic: weight increase Δm<0.2%; • slightly hygroscopic: weight increase 0.2%≦Δm<2.0%; • hygroscopic: weight increase 2.0%≦Δm<15.0%; • very hygroscopic: weight increase Δm≧15.0%; • deliquescent: sufficient water is adsorbed to form a liquid.

[4] = Solid form stability towards humidity and water (storage, Humidity Controlled XRPD); settings: for phase change upon storage at 100% rH: ambient temperature (Form C: e.g. 30 days); for relative humidity at which Form B dehydrates into Form E: storage / Humidity Controlled XRPD, monohydrate
Procedure: Humidity Controlled XRPD analyses were performed in reflection geometry with a Siemens D5000 Diffractometer (Cu radiation source, NiK beta filter, Scintillation detector, angular range 3° to 42° 2Theta, approximately 180 minutes total measurement time per humidity level). The diffractometer is equipped with an MR1 (Materials Research Instruments) humidity chamber. The humidity within the chamber is adjusted with an ANSYCO humidity controller (SYCOS H-HOT).
50 mg of Form B was subjected to dehydration/hydration cycles.

[5] = Biopharmaceutical classification system (BCS); type: physicochemical
Description: The compound of formula (I), its manufacture, its pharmacological activity as inverse agonists of the GABA A α5 receptor, and its use for the treatment, prevention and/or delay of progression of various central nervous system (CNS) conditions have been described in WO 2009/071476. […] Res. (1995) 12:413-420].

[6] = Description: FIG. 20 illustrates the phase solubility diagram of (1,1-dioxo-1λ^6-thiomorpholin-4-yl)-{6-[3-(4-fluoro-phenyl)-5-methyl-isoxazol-4-ylmethoxy]-pyridin-3-yl}-methanone and γ-CD. The API solubility is shown in [μg/mL].
Phase solubility diagrams are used to characterize complex formation between two compounds and represent the solubility of the API as a function of the cyclodextrin concentration. […] Anal. Chem. Instrum. (1965) 4:117-212] and Brewster [M E. Brewster et al. Adv. Drug Delivery Rev. (2007) 59:645-666] (FIG. 20).
Anal. Chem. Instrum. (1965) 4:117-212]:
[formula] […] The binding constant (K) is a measure of the affinity of the API to enter the relatively apolar cavity of the CD.

[7] = In vitro dissolution in miniaturized system (SGF, FeSSIF); type: physicochemical; settings: comparison with Form B
Procedure: FIG. 21 illustrates the mean in vitro dissolution profiles in SGF. Mean in vitro dissolution profiles of micronized powders of Form A (∘), Form B (▾), Form C (▪) and γ-CD inclusion complex (Δ) in SGF at room temperature. Measurements were performed in triplicate (n=3).
FIG. 22 illustrates the mean in vitro dissolution profiles in FeSSIF. Mean in vitro dissolution profiles of micronized powders of Form A (∘), Form B (▾), Form C (▪) and γ-CD inclusion complex (Δ) in FeSSIF at room temperature. Measurements were performed in triplicate (n=3).
The in vitro dissolution studies performed in this work were conducted in a miniaturized system with 100 mL dissolution medium per experiment. In comparison to the 1000 mL vessels of the conventional USP apparatus the experimental set-up that was used here was scaled-down and simplified (magnetic stirring instead of paddles, room temperature instead of 37° C.). […] Simulated gastric fluid (SGF) was prepared with 2 g/L NaCl and 1 g/L Triton® X-100 in 0.1 N HCl. The resulting measured pH of SGF was 1.2.
Oral absorption of a drug compound from a solid dosage form is dependent on dissolution rate and solubility. In the present work the in vitro dissolution of the γ-CD inclusion complex was compared to micronized powders of polymorph Form A, Form B and Form C. […]

[8] = Temperature Controlled XRPD of Form B

With Cc1onc(-c2ccc(F)cc2)c1COc1ccc(C(=O)N2CCS(=O)(=O)CC2)cn1 [Form A, (1,1-dioxo-1λ^6-thiomorpholin-4-yl)-{6-[3-(4-fluoro-phenyl)-5-methyl-isoxazol-4-ylmethoxy]-pyridin-3-yl}-methanone] the “thermodynamic stability of the polymorph” value [1] was “metastable”, the “thermodynamic stability of the polymorph” value ([1]; listed as form A) was “only metastable” and the “solid form changes at elevated temperature” value [2] was “do not show solid form changes”.
For Cc1onc(-c2ccc(F)cc2)c1COc1ccc(C(=O)N2CCS(=O)(=O)CC2)cn1 [amorphous Form, (1,1-dioxo-1λ^6-thiomorpholin-4-yl)-{6-[3-(4-fluoro-phenyl)-5-methyl-isoxazol-4-ylmethoxy]-pyridin-3-yl}-methanone], the hygroscopicity [3] was “slightly hygroscopic (weight increase 0.2%≦Δm<2.0%)” and the “phase change upon storage at 100% rH” value [4] was “no phase transformation has been observed”.
For Cc1onc(-c2ccc(F)cc2)c1COc1ccc(C(=O)N2CCS(=O)(=O)CC2)cn1 [compound of formula (I), (1,1-Dioxo-1λ^6-thiomorpholin-4-yl)-{6-[3-(4-fluoro-phenyl)-5-methyl-isoxazol-4-ylmethoxy]-pyridin-3-yl}-methanone], the aqueous solubility ([5]; BCS) was “low”, the permeability ([5]; BCS) was “high” and the BCS class ([5]; biopharmaceutical classification system) was “BCS 2”. For the same compound, the “phase solubility diagram type” value [6] was “BS-type behavior”.
With Cc1onc(-c2ccc(F)cc2)c1COc1ccc(C(=O)N2CCS(=O)(=O)CC2)cn1 [Form B, (1,1-dioxo-1λ^6-thiomorpholin-4-yl)-{6-[3-(4-fluoro-phenyl)-5-methyl-isoxazol-4-ylmethoxy]-pyridin-3-yl}-methanone monohydrate] the hygroscopicity ([3]; monohydrate) was “hygroscopic (weight increase 2.0%≦Δm<15.0%)”, the “stability in the presence of humidity” value ([4]; e.g. at ambient conditions, compared to Form A) was “substantially increased as compared to Form A” and the “relative humidity at which Form B dehydrates into Form E” value ([4]; listed as form B) was 0 % rH. The “relative humidity at which Form B dehydrates into Form E” value [4] was under 5 % rH, the “temperature range in which an intermediate state is observed” value [2, 8] was 65-95 °C and the “temperature range in which only Form A is present” value [2, 8] was 105-135 °C. The “temperature of transformation into Form A upon heating” value ([2]; heating) was over 100 °C.
With Cc1onc(-c2ccc(F)cc2)c1COc1ccc(C(=O)N2CCS(=O)(=O)CC2)cn1 [Form E, (1,1-dioxo-1λ^6-thiomorpholin-4-yl)-{6-[3-(4-fluoro-phenyl)-5-methyl-isoxazol-4-ylmethoxy]-pyridin-3-yl}-methanone] the “relative humidity at which Form E reconverts (rehydrates) into Form B” value ([4]; exposure to humidity) was over 5 % rH.
With OC[C@H]1O[C@@H]2O[C@H]3[C@H](O)[C@@H](O)[C@@H](O[C@H]4[C@H](O)[C@@H](O)[C@@H](O[C@H]5[C@H](O)[C@@H](O)[C@@H](O[C@H]6[C@H](O)[C@@H](O)[C@@H](O[C@H]7[C@H](O)[C@@H](O)[C@@H](O[C@H]8[C@H](O)[C@@H](O)[C@@H](O[C@H]9[C@H](O)[C@@H](O)[C@@H](O[C@H]1[C@H](O)[C@H]2O)O[C@@H]9CO)O[C@@H]8CO)O[C@@H]7CO)O[C@@H]6CO)O[C@@H]5CO)O[C@@H]4CO)O[C@@H]3CO [γ-cyclodextrin] the “solubility limit in aqueous solution” value [6] was 150 mM (≈ 195 mg/mL).
In the case of Cc1onc(-c2ccc(F)cc2)c1COc1ccc(C(=O)N2CCS(=O)(=O)CC2)cn1 [Form C, (1,1-dioxo-1λ^6-thiomorpholin-4-yl)-{6-[3-(4-fluoro-phenyl)-5-methyl-isoxazol-4-ylmethoxy]-pyridin-3-yl}-methanone], the “hygroscopicity compared to Form A” value ([3]; comparison) is reported as “less hygroscopic than Form A”, the “solubility in simulated gastric fluid (SGF)” value [7] is reported as “considerably improved as compared to Form B” and the “thermodynamic stability of the polymorph” value [1] is reported as “more stable than Form A; also recorded: most stable polymorph overall”. For the same compound, the “phase change upon storage at 100% rH” value [4] was “does not induce this phase change”, the “phase change in the presence of water” value ([4]; suspended state) was “transforms into Form B” and the “solid form changes at elevated temperature” value [2] was “do not show solid form changes”.
